How the values were obtained:
Format in all cases: cell-based
[1] = test system: Mycosphaerella arachidis (syn. Cercospora arachidicola); assay: Mycosphaerella arachidis (syn. Cercospora arachidicola) growth inhibition in nutrient broth (microtiter plate, photometric); conditions: approximately 5-6 days
Method: (§1) Brown leaf spot of groundnut (peanut): Conidia of the fungus from cryogenic storage were directly mixed into nutrient broth (potato dextrose broth). After placing a (DMSO) solution of the test compounds into a microtiter plate (96-well format) the nutrient broth containing the fungal spores was added. The test plates were incubated at 24° C. and the inhibition of growth was determined photometrically after approximately 5-6 days at 620 nm. Two replicates per treatment were evaluated

Gaeumannomyces graminis = Gaeumannomyces graminis growth inhibition in nutrient broth (microtiter plate, photometric); conditions: 48 hours
Method: as §1, with “Mycelial fragments” for “Brown leaf spot of groundnut (peanut): Conidia”, “48 hours” for “approximately 5-6 days”, “evaluated.” for “evaluated”

Septoria tritici = Septoria tritici (leaf blotch) growth inhibition in nutrient broth (microtiter plate, photometric); conditions: 72 hours
Method: as §1, with “Conidia” for “Brown leaf spot of groundnut (peanut): Conidia”, “72 hours.” for “approximately 5-6 days at 620 nm.”, “evaluated.” for “evaluated”

Q: With `Cn1cc(C(=O)Nc2cccc3c2C2CCC3C2=C(Cl)Cl)c(C(F)F)n1` (centres unmarked) [C-IIIA] as the compound, how does the Observed control % ([1]; C-IIIA 0.0156 ppm alone) read?
A: 20.0%

Q: And the Observed control % ([1]; C-IIIA 0.0313 ppm alone)?
A: 90.0%

Q: With `CO/C=C(/C(=O)OC)c1ccccc1Oc1cc(Oc2ccccc2C#N)ncn1` [azoxystrobin, Azoxystrobin] as the compound, how does the Observed control % (Gaeumannomyces graminis; azoxystrobin 0.0625 ppm alone) read?
A: 0.0%

Q: And the Observed control % (Gaeumannomyces graminis; azoxystrobin 0.1250 ppm alone)?
A: 20.0%

Q: What about the Observed control % (Gaeumannomyces graminis; azoxystrobin 0.2500 ppm alone) of the same compound?
A: 20.0%

Q: And the Observed control % (Gaeumannomyces graminis; azoxystrobin 0.5000 ppm alone)?
A: 50.0%

Q: And the Observed control % (Gaeumannomyces graminis; azoxystrobin 1.0000 ppm alone)?
A: 50.0%

Q: And the Observed control % (Gaeumannomyces graminis; azoxystrobin 2.0000 ppm alone)?
A: 50.0%

Q: What does the source list for `CC(C1CC1)C(O)(Cn1cncn1)c1ccc(Cl)cc1` (centres unmarked) [cypropconazole, Cyproconazole]?
A: Observed control % (Septoria tritici; cypropconazole 0.0625 ppm alone): 0.0%; Observed control % (Septoria tritici; cypropconazole 0.1250 ppm alone): 0.0%; Observed control % (Septoria tritici; cypropconazole 0.2500 ppm alone): 0.0%; Observed control % (Septoria tritici; cypropconazole 0.5000 ppm alone): 70.0%; Observed control % (Septoria tritici; cypropconazole 1.0000 ppm alone): 90.0%; Observed control % (Septoria tritici; cypropconazole 2.0000 ppm alone): 90.0%

— US9439431B2, “Pesticidal mixtures comprising isoxazoline derivatives” (Syngenta Participations AG, priority 2011, dated 2016)
